Source: ChEMBL document CHEMBL1177794, “Broad spectrum alkynyl inhibitors of T315I Bcr-Abl” (Bioorg Med Chem Lett, 2010)

What was measured:
[1] = molecular target: Serine/threonine-protein kinase DCLK2 (Homo sapiens) (UniProt Q8N568); test: Inhibition of DCAMKL2 at 10 uM; settings: values are per cent of control
[2] = molecular target: cAMP-dependent protein kinase catalytic subunit beta (Homo sapiens) (UniProt P22694); test: Inhibition of PKAC-beta at 10 uM; settings: values are per cent of control
[3] = system: Hepatocyte growth factor receptor (Homo sapiens), P08581 [M1250T]; test: Inhibition of MET M1250T mutant at 10 uM
[4] = molecular target: Serine/threonine-protein kinase PAK 3 (Homo sapiens) (UniProt O75914); test: Inhibition of PAK3 at 10 uM; values are per cent of control
[5] = molecular target: Aurora kinase A (Homo sapiens) (UniProt O14965); test: Inhibition of AURKA at 10 uM; settings: values are per cent of control
[6] = molecular target: Tyrosine-protein kinase TXK (Homo sapiens) (UniProt P42681); test: Inhibition of TXK at 10 uM; settings: values are per cent of control
[7] = molecular target: Cyclin-dependent kinase 19 (Homo sapiens) (UniProt Q9BWU1); test: Inhibition of CDK11 at 10 uM; values are per cent of control
[8] = molecular target: cGMP-dependent protein kinase 1 (Homo sapiens) (UniProt Q13976); test: Inhibition of PRKG1 at 10 uM; settings: values are per cent of control
[9] = molecular target: Myosin light chain kinase family member 4 (Homo sapiens) (UniProt Q86YV6); test: Inhibition of MYLK4 at 10 uM
[10] = molecular target: Mitogen-activated protein kinase kinase kinase 12 (Homo sapiens) (UniProt Q12852); test: Inhibition of DLK at 10 uM; values are per cent of control
[11] = molecular target: Dual specificity tyrosine-phosphorylation-regulated kinase 2 (Homo sapiens) (UniProt Q92630); test: Inhibition of DYRK2 at 10 uM; settings: values are per cent of control
[12] = molecular target: Serine/threonine-protein kinase PAK 2 (Homo sapiens) (UniProt Q13177); test: Inhibition of PAK2 at 10 uM
[13] = molecular target: Eukaryotic translation initiation factor 2-alpha kinase 1 (Homo sapiens) (UniProt Q9BQI3); test: Inhibition of EIF2AK1 at 10 uM; settings: values are per cent of control
[14] = molecular target: Mitogen-activated protein kinase 15 (Homo sapiens) (UniProt Q8TD08); test: Inhibition of ERK8 at 10 uM; settings: values are per cent of control
[15] = molecular target: Receptor-interacting serine/threonine-protein kinase 2 (Homo sapiens) (UniProt O43353); test: Inhibition of RIPK2 at 10 uM; settings: values are per cent of control
[16] = molecular target: Inhibitor of nuclear factor kappa-B kinase subunit epsilon (Homo sapiens) (UniProt Q14164); test: Inhibition of IKK-epsilon at 10 uM; settings: values are per cent of control
[17] = molecular target: MAP kinase-interacting serine/threonine-protein kinase 1 (Homo sapiens) (UniProt Q9BUB5); test: Inhibition of MKNK1 at 10 uM
[18] = molecular target: Activin receptor type-2A (Homo sapiens) (UniProt P27037); test: Inhibition of ACVR2A at 10 uM; settings: values are per cent of control
[19] = molecular target: Epidermal growth factor receptor (Homo sapiens) (UniProt P04626+P00533+Q15303+P21860); test: Inhibition of EGFR E746-A750del mutant at 10 uM; values are per cent of control
[20] = system: Phosphatidylinositol 4,5-bisphosphate 3-kinase catalytic subunit alpha isoform (Homo sapiens), P42336 [H1047Y]; test: Inhibition of PIK3CA H1047Y mutant at 10 uM
[21] = system: Tyrosine-protein kinase ABL1 (Homo sapiens), P00519 [Q252H]; test: Inhibition of phosphorylated ABL1 Q252H mutant at 10 uM; settings: values are per cent of control
[22] = system: Epidermal growth factor receptor (Homo sapiens), P00533 [UNDEFINED MUTATION]; test: Inhibition of EGFR L747-S752del, P753S mutant at 10 uM; values are per cent of control
[23] = molecular target: STE20-like serine/threonine-protein kinase (Homo sapiens) (UniProt Q9H2G2); test: Inhibition of SLK at 10 uM
[24] = molecular target: Mitogen-activated protein kinase 3 (Homo sapiens) (UniProt P27361); test: Inhibition of ERK1 at 10 uM; settings: values are per cent of control
[25] = molecular target: Bone morphogenetic protein receptor type-2 (Homo sapiens) (UniProt Q13873); test: Inhibition of BMPR2 at 10 uM; values are per cent of control
[26] = molecular target: MAP/microtubule affinity-regulating kinase 3 (Homo sapiens) (UniProt P27448); test: Inhibition of MARK3 at 10 uM; settings: values are per cent of control
[27] = molecular target: Misshapen-like kinase 1 (Homo sapiens) (UniProt Q8N4C8); test: Inhibition of MINK at 10 uM
[28] = molecular target: Ephrin type-A receptor 8 (Homo sapiens) (UniProt P29322); test: Inhibition of EPHA8 at 10 uM; settings: values are per cent of control
[29] = molecular target: Serine/threonine-protein kinase tousled-like 1 (Homo sapiens) (UniProt Q9UKI8); test: Inhibition of TLK1 at 10 uM
[30] = molecular target: Serine/threonine-protein kinase PAK 4 (Homo sapiens) (UniProt O96013); test: Inhibition of PAK4 at 10 uM
[31] = molecular target: Serine/threonine-protein kinase N2 (Homo sapiens) (UniProt Q16513); test: Inhibition of PKN2 at 10 uM
[32] = molecular target: RAC-beta serine/threonine-protein kinase (Homo sapiens) (UniProt P31751); test: Inhibition of AKT2 at 10 uM; settings: values are per cent of control
[33] = molecular target: Leukocyte tyrosine kinase receptor (Homo sapiens) (UniProt P29376); test: Inhibition of LTK at 10 uM; settings: values are per cent of control
[34] = molecular target: Calcium/calmodulin-dependent protein kinase type IV (Homo sapiens) (UniProt Q16566); test: Inhibition of CAMK4 at 10 uM; settings: values are per cent of control
[35] = molecular target: Receptor tyrosine-protein kinase erbB-4 (Homo sapiens) (UniProt Q15303); test: Inhibition of ERBB4 at 10 uM; values are per cent of control
[36] = molecular target: Hepatocyte growth factor receptor (Homo sapiens) (UniProt P08581); test: Inhibition of MET at 10 uM
[37] = molecular target: Serine/threonine-protein kinase NLK (Homo sapiens) (UniProt Q9UBE8); test: Inhibition of NLK at 10 uM
[38] = molecular target: TRAF2 and NCK-interacting protein kinase (Homo sapiens) (UniProt Q9UKE5); test: Inhibition of TNIK at 10 uM; settings: values are per cent of control
[39] = molecular target: Cyclin-dependent kinase-like 5 (Homo sapiens) (UniProt O76039); test: Inhibition of CDKL5 at 10 uM; settings: values are per cent of control
[40] = molecular target: Tyrosine-protein kinase Blk (Homo sapiens) (UniProt P51451); test: Inhibition of BLK at 10 uM; settings: values are per cent of control
[41] = molecular target: Serine/threonine-protein kinase pim-1 (Homo sapiens) (UniProt P11309); test: Inhibition of PIM1 at 10 uM
[42] = molecular target: Dual specificity mitogen-activated protein kinase kinase 2 (Homo sapiens) (UniProt P36507); test: Inhibition of MEK2 at 10 uM; settings: values are per cent of control
[43] = molecular target: Serine/threonine-protein kinase N1 (Homo sapiens) (UniProt Q16512); test: Inhibition of PKN1 at 10 uM

Chain of RAC-beta serine/threonine-protein kinase (Homo sapiens) (P31751 whole entry): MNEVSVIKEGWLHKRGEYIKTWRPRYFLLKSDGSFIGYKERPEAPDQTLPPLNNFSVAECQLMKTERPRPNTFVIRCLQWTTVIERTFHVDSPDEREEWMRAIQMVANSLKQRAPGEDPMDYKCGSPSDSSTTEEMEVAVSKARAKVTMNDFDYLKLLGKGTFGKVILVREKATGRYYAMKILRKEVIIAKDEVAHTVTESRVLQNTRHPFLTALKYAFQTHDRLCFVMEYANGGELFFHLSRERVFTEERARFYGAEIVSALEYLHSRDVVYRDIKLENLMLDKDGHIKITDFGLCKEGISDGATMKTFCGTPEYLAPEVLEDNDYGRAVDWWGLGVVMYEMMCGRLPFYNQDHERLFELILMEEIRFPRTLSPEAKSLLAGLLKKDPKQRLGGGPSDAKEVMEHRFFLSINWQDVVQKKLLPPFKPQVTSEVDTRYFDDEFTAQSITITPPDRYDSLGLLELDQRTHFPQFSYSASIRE
Chain of Dual specificity tyrosine-phosphorylation-regulated kinase 2 (Homo sapiens) (Q92630 whole entry): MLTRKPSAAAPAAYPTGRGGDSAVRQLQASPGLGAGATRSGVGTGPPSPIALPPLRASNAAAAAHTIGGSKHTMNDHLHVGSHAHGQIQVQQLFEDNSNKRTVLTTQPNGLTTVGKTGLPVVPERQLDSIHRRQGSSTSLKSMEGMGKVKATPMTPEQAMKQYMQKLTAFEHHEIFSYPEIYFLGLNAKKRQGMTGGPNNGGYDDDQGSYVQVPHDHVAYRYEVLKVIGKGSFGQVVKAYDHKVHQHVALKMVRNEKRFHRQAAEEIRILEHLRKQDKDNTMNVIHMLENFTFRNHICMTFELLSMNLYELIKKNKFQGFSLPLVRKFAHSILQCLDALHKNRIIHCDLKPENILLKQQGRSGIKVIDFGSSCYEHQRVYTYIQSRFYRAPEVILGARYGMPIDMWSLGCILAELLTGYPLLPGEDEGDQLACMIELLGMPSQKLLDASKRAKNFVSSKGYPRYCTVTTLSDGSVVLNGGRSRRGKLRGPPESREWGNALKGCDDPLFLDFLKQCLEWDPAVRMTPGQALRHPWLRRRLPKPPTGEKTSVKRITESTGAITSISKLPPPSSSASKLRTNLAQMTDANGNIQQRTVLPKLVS
Chain of Serine/threonine-protein kinase N2 (Homo sapiens) (Q16513 whole entry, looked up): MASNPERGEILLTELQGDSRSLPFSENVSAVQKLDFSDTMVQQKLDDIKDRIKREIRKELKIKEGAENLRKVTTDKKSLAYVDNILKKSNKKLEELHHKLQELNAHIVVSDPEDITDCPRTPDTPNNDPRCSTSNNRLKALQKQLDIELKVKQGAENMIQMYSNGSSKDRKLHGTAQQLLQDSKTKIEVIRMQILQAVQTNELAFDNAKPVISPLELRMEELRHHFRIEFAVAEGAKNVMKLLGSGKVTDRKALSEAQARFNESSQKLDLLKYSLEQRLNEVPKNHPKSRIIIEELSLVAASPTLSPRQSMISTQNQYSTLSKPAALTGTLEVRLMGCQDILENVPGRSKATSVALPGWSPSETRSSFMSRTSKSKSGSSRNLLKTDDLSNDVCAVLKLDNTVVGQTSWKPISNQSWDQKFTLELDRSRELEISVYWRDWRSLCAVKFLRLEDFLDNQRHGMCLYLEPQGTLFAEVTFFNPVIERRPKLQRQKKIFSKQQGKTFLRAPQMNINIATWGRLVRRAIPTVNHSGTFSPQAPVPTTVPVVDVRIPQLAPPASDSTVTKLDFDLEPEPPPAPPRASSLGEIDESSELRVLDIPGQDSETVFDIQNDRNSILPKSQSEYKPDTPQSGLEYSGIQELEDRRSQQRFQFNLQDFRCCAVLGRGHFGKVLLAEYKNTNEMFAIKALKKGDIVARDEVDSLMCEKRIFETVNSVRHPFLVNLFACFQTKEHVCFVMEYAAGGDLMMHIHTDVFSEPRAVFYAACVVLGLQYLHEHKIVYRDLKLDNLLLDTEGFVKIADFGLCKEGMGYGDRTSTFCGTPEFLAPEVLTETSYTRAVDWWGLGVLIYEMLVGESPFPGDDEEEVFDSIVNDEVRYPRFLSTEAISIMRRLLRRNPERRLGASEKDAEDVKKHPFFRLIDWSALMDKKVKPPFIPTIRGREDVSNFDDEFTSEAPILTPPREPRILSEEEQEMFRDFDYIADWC
Chain of Bone morphogenetic protein receptor type-2 (Homo sapiens) (Q13873 whole entry): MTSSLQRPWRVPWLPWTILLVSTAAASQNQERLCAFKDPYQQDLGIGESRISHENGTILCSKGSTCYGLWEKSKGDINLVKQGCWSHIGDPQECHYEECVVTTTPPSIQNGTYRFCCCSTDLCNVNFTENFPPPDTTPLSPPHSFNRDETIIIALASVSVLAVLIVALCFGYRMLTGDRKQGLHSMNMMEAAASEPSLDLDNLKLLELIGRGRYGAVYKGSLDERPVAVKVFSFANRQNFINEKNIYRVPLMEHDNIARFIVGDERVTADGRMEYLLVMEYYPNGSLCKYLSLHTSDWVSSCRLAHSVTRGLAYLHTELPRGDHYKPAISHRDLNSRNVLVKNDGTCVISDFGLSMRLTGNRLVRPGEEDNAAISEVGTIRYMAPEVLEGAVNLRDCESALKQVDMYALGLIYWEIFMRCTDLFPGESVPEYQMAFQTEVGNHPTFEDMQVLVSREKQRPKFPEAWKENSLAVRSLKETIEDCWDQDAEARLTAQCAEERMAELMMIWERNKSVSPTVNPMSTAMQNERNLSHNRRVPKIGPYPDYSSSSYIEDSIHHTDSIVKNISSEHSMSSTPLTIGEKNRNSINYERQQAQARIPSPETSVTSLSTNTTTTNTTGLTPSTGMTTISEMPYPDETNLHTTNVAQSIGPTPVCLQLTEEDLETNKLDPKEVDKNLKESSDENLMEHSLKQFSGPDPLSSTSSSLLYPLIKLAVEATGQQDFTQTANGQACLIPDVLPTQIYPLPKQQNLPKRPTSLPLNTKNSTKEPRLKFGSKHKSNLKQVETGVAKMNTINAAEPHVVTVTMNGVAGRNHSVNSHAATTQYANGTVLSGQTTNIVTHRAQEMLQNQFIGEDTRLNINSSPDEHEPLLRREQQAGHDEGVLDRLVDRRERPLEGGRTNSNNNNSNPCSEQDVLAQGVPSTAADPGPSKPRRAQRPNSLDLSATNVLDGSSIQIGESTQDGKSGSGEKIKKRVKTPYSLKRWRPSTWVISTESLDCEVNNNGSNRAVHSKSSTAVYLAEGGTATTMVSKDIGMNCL
Chain of MAP kinase-interacting serine/threonine-protein kinase 1 (Homo sapiens) (Q9BUB5 whole entry, looked up): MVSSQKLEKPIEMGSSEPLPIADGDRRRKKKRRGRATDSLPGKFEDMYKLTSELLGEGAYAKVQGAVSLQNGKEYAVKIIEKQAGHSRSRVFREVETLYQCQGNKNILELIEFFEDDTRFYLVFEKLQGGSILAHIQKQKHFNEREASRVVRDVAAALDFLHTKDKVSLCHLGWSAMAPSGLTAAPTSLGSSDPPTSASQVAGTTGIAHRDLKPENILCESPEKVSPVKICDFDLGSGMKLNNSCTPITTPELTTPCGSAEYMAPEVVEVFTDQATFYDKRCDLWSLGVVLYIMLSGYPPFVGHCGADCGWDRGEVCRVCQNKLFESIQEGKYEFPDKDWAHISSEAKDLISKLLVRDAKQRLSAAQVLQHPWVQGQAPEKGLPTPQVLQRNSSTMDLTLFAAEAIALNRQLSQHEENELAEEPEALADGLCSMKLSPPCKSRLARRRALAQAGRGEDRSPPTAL
Chain of Serine/threonine-protein kinase PAK 4 (Homo sapiens) (O96013 whole entry, looked up): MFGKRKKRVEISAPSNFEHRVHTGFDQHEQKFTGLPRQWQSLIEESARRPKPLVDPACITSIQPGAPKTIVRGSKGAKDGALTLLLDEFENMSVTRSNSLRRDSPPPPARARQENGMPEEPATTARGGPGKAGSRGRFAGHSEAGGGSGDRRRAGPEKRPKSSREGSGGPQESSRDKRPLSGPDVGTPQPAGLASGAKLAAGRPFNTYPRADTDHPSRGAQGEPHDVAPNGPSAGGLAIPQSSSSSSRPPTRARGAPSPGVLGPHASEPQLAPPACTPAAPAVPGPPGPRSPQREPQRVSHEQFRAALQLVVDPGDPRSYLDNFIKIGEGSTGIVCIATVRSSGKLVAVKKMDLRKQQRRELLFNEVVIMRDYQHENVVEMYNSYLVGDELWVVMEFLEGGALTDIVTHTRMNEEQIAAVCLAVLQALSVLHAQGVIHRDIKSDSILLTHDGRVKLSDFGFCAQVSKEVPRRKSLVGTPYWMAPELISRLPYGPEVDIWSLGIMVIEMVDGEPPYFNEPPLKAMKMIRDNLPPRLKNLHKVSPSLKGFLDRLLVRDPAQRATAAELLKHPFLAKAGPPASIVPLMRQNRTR
Chain of Mitogen-activated protein kinase kinase kinase 12 (Homo sapiens) (Q12852 whole entry, looked up): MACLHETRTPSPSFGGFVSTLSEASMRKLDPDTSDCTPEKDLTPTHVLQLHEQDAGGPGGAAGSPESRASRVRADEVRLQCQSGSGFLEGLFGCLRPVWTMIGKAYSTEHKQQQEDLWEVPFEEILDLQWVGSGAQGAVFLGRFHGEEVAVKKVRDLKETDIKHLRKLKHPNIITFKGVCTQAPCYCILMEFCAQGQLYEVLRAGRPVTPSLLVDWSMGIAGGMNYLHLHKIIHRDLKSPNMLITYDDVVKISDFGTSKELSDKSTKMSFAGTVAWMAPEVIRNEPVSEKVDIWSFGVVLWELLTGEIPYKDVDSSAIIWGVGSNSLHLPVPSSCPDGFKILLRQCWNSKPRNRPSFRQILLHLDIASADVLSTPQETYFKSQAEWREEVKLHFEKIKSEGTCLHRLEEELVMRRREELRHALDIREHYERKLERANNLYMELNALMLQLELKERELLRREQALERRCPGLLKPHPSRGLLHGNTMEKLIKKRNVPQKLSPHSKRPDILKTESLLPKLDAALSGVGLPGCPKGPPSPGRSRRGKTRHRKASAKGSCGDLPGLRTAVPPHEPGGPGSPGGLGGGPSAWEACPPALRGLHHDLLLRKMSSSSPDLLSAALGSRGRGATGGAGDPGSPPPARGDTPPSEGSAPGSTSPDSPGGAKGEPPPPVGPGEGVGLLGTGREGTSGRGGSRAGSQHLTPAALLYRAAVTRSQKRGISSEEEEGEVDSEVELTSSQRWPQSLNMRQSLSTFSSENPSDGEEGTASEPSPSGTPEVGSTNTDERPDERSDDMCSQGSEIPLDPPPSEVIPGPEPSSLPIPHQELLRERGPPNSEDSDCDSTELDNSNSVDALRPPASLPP

Question: What does the source list for `CCN1CCN(Cc2ccc(NC(=O)c3ccc(C)c(C#Cc4cnc5[nH]ccc5c4)c3)cc2C(F)(F)F)CC1`?
Answer: residual binding, % of control [1]: 30%; residual binding, % of control [2]: 11%; inhibition [3]: 59%; % of control [4]: 1.1%; residual binding, % of control [5]: 97%; residual binding, % of control [6]: 0.25%; level, % of control [7]: 4.2%; residual binding, % of control [8]: 100%; inhibition [9]: 40%; level, % of control [10]: 3.8%; residual binding, % of control [11]: 51%; inhibition [12]: 76%; residual binding, % of control [13]: 72%; residual binding, % of control [14]: 2.6%; residual binding, % of control [15]: 0.3%; residual binding, % of control [16]: 92%; inhibition [17]: 1.2%; residual binding, % of control [18]: 100%; level, % of control [19]: 0.75%; inhibition [20]: 82%; residual binding, % of control [21]: 0.2%; level, % of control [22]: 0.8%; inhibition [23]: 0.3%; residual binding, % of control [24]: 96%; level, % of control [25]: 61%; residual binding, % of control [26]: 42%; inhibition [27]: 5.4%; residual binding, % of control [28]: 0%; inhibition [29]: 93%; inhibition [30]: 87%; inhibition [31]: 2.2%; residual binding, % of control [32]: 4.6%; residual binding, % of control [33]: 2.5%; residual binding, % of control [34]: 100%; level, % of control [35]: 0.1%; inhibition [36]: 9.2%; inhibition [37]: 13%; residual binding, % of control [38]: 1.6%; residual binding, % of control [39]: 28%; residual binding, % of control [40]: 0%; inhibition [41]: 100%; residual binding, % of control [42]: 37%; inhibition [43]: 28%

Question: Which results are given for `CCN1CCN(Cc2ccc(NC(=O)c3ccc(C)c(C#Cc4cccnc4)c3)cc2C(F)(F)F)CC1`?
Answer: residual binding, % of control [1]: 65%; residual binding, % of control [2]: 4.1%; inhibition [3]: 73%; % of control [4]: 3.3%; residual binding, % of control [5]: 100%; residual binding, % of control [6]: 0.3%; level, % of control [7]: 5%; residual binding, % of control [8]: 100%; inhibition [9]: 68%; level, % of control [10]: 9.8%; residual binding, % of control [11]: 48%; inhibition [12]: 84%; residual binding, % of control [13]: 83%; residual binding, % of control [14]: 1.8%; residual binding, % of control [15]: 0.45%; residual binding, % of control [16]: 100%; inhibition [17]: 0.25%; residual binding, % of control [18]: 100%; level, % of control [19]: 1.8%; inhibition [20]: 81%; residual binding, % of control [21]: 0.7%; level, % of control [22]: 0.9%; inhibition [23]: 0.1%; residual binding, % of control [24]: 100%; level, % of control [25]: 70%; residual binding, % of control [26]: 69%; inhibition [27]: 2.5%; residual binding, % of control [28]: 0%; inhibition [29]: 93%; inhibition [30]: 100%; inhibition [31]: 36%; residual binding, % of control [32]: 30%; residual binding, % of control [33]: 4.5%; residual binding, % of control [34]: 100%; level, % of control [35]: 1.8%; inhibition [36]: 73%; inhibition [37]: 8.2%; residual binding, % of control [38]: 1.8%; residual binding, % of control [39]: 12%; residual binding, % of control [40]: 0%; inhibition [41]: 84%; residual binding, % of control [42]: 64%; inhibition [43]: 85%
